Read-outs that look alike come from different tables or passages of the source.
Legend:
HIV-1LPV5μM = assay: microbe, parasite or virus in culture; type: cell-based; conditions: for EC50: Human immunodeficiency virus 1, MT4, read-out: EC50 (μM), HIV-1LPV5 μM; for n-fold change in EC50, HIV-1LPV5 μM: compared to wild-type HIV-1NL4-3
Method: (§1) The susceptibility of HIV-1LAI and primary HIV-1 isolates to various drugs were determined as described previously (Koh et al. 2003 Antimicrob Agents Chemother 47:3123-9). Briefly, MT-2 cells (2×10^4/ml) were exposed to 100 50% tissue culture infectious doses (TCID50S) of HIV-1LAI, in the presence or absence of various concentrations of drugs in 96-well microculture plates and were incubated at 37° C. for 7 days. After 100 μl of the medium was removed from each well, 3-(4,5-dimetylthiazol-2-yl)-2,5-diphenyltetrazolium bromide (MTT) solution (10 μl, 7.5 mg/ml in phosphate-buffered saline) was added to each well in the plate, followed by incubation at 37° C. for 3 h. […] All assays were performed in duplicate or triplicate. To determine the susceptibility of primary HIV-1 isolates to drugs, phytohemagglutinin-activated peripheral blood mononuclear cells (PHA-PBMCs; 106/ml) were exposed to 50 TCID50S of each. The target cells were exposed to HIV-1104pre or drug-resistant HIV-1 in the presence or absence of various concentrations of drugs and were incubated for 7 days. Upon the conclusion of the culture, the amounts of p24 Gag protein in the supernatants were determined using a fully automated chemiluminescent enzyme immunoassay system (Lumipulse F; Fujirebio Inc., Tokyo, Japan) (Maeda et al. 2001 J Biol Chem 276:35194-200). To determine the drug susceptibility of certain laboratory HIV-1 strains, MT-4 cells were used as target cells. In brief, MT-4 cells (10^5/ml) were exposed to 100 TCID50S of drug-resistant HIV-1 strains in the presence or absence of various concentrations of drugs and on day 7 of culture, the supernatant was harvested and the amounts of p24 Gag protein were determined. […] All assays were performed in duplicate or triplicate.
(§2) Numbers in parentheses represent n-fold changes in EC50s for each isolate compared to the EC50s for wild-type HIV-1NL4-3.

HIV-1AZV5μM = assay: microbe, parasite or virus in culture; type: cell-based; conditions: for EC50: Human immunodeficiency virus 1, MT4, read-out: EC50 (μM), HIV-1AZV5 μM; for n-fold change in EC50, HIV-1AZV5 μM: compared to wild-type HIV-1NL4-3
Method: as §1, §2

HIV-1NL4-3 = assay: p24 Gag inhibition in MT-4 cells, HIV-1NL4-3; type: cell-based
Method: All assays were performed in duplicate or triplicate. […] All assays were performed in duplicate or triplicate.

HIV-1396-1μM = assay: microbe, parasite or virus in culture; type: cell-based, HIV-1; conditions: for EC50: Human immunodeficiency virus 1, MT4, read-out: EC50 (μM), HIV-1396-1 μM; for n-fold change in EC50, HIV-1396-1 μM: compared to wild-type HIV-1NL4-3
Method: (§3) Briefly, MT-2 cells (2×10^4/ml) were exposed to 100 50% tissue culture infectious doses (TCID50S) of HIV-1LAI, in the presence or absence of various concentrations of drugs in 96-well microculture plates and were incubated at 37° C. for 7 days. After 100 μl of the medium was removed from each well, 3-(4,5-dimetylthiazol-2-yl)-2,5-diphenyltetrazolium bromide (MTT) solution (10 μl, 7.5 mg/ml in phosphate-buffered saline) was added to each well in the plate, followed by incubation at 37° C. for 3 h. […] All assays were performed in duplicate or triplicate. […] To determine the drug susceptibility of certain laboratory HIV-1 strains, MT-4 cells were used as target cells. In brief, MT-4 cells (10^5/ml) were exposed to 100 TCID50S of drug-resistant HIV-1 strains in the presence or absence of various concentrations of drugs and on day 7 of culture, the supernatant was harvested and the amounts of p24 Gag protein were determined. […] All assays were performed in duplicate or triplicate.
as §2

HIV-1216-P50 = assay: microbe, parasite or virus in culture; type: cell-based, HIV-1; conditions: for EC50: Human immunodeficiency virus 1, MT4, read-out: EC50 (μM), HIV-1216-p50; for n-fold change in EC50, HIV-1216-p50: compared to wild-type HIV-1NL4-3
Method: as §3, §2

HIV-1286-1μM = assay: microbe, parasite or virus in culture; type: cell-based, HIV-1; conditions: for EC50: Human immunodeficiency virus 1, MT4, read-out: EC50 (μM), HIV-1286-1 μM; for n-fold change in EC50, HIV-1286-1 μM: compared to wild-type HIV-1NL4-3
Method: as §3, §2

HIV-1246-1μM = assay: microbe, parasite or virus in culture; type: cell-based, HIV-1; conditions: for EC50: Human immunodeficiency virus 1, MT4, read-out: EC50 (μM), HIV-1246-1 μM; for n-fold change in EC50, HIV-1246-1 μM: compared to wild-type HIV-1NL4-3
Method: as §3, §2

HIV-1MDR/JSL = assay: microbe, parasite or virus in culture; type: cell-based; conditions: for EC50: Human immunodeficiency virus 1, read-out: EC50 (μM), HIV-1MDR/JSL (NSI); for n-fold change of EC50, HIV-1MDR/JSL: compared to wild-type HIV-1ERS104pre
Method: as §1
(§4) These clinical strains contained 9 to 14 amino acid substitutions in the protease-encoding region, which have reportedly been associated with HIV-1 resistance to various PIs.
(§5) Amino acid substitutions identified in the protease-encoding region compared to the consensus type B sequence cited from the Los Alamos database include L63P in HIV-1ERS104pre; L10I, K14R, L33I, M36I, M46I, F53I, K55R, I62V, L63P, A71V, G73S, V82A, L90M, and I93L in HIV-1MDR/B; L10I, I15V, K20R, L24I, M36I, M46L, I54V, I62V, L63P, K70Q, V82A, and L89M in HIV-1MDR/C; L10I, V11I, T12E, I15V, L19I, R41K, M46L, L63P, A71T, V82A, and L90M in HIV-1MDR/G; L10I, K14R, R41K, M46L, I54V, L63P, A71V, V82A, L90M, I93L in HIV-1MDR/TM; L10I, K43T, M46L, I54V, L63P, A71V, V82A, L90M, and Q92K in HIV-1MDR/MM; L10I, L24I, I33F, E35D, M36I, N37S, M46L, I54V, R57K, I62V, L63P, A71V, G73S, and V82A in HIV-1MDR/JSL. HIV-1ERS104pre served as a source of wild-type HIV-1. EC50s were determined by using PHA-PBMs as target cells, and inhibition of p24 Gag protein production by each drug was used as an end point. Numbers in parentheses represent n-fold changes of EC50s for each isolate compared to EC50s for wild-type HIV-1ERS104pre.

HIV-1MDR/MM = assay: microbe, parasite or virus in culture; type: cell-based; conditions: for EC50: Human immunodeficiency virus 1, read-out: EC50 (μM), HIV-1MDR/MM (NSI); for n-fold change of EC50, HIV-1MDR/MM: compared to wild-type HIV-1ERS104pre
Method: as §1, §4, §5

[1] = Human immunodeficiency virus 1, MT4, Table 7, mean ± 1 SD, read-out: EC50 (μM), HIV-1NL4-3
[2] = Human immunodeficiency virus 1, MT4, Table 9, mean ± 1 SD, read-out: EC50 (μM), HIV-1NL4-3
[3] = Human immunodeficiency virus 1, MT4, read-out: EC50 (μM), HIV-1NL4-3, Table 7, mean ± 1 SD
[4] = Human immunodeficiency virus 1, MT4, read-out: EC50 (μM), HIV-1NL4-3, Table 9, mean ± 1 SD

Compound | EC50 (HIV-1LPV5μM) [µM] | EC50 (HIV-1AZV5μM) [µM] | EC50 (HIV-1NL4-3; [1]) [µM] | EC50 (HIV-1NL4-3; [2]) [µM] | EC50 (HIV-1396-1μM) [µM] | EC50 (HIV-1216-P50) [µM] | EC50 (HIV-1286-1μM) [µM] | EC50 (HIV-1246-1μM) [µM] | EC50 (HIV-1MDR/JSL) [µM] | EC50 (HIV-1MDR/MM) [µM] | n-fold change in EC50, HIV-1LPV5 μM (HIV-1LPV5μM) | n-fold change in EC50, HIV-1AZV5 μM (HIV-1AZV5μM) | EC50 (HIV-1NL4-3; [3]) [µM] | EC50 (HIV-1NL4-3; [4]) [µM] | n-fold change in EC50, HIV-1396-1 μM (HIV-1396-1μM) | n-fold change in EC50, HIV-1216-p50 (HIV-1216-P50) | n-fold change in EC50, HIV-1286-1 μM (HIV-1286-1μM) | n-fold change in EC50, HIV-1246-1 μM (HIV-1246-1μM) | n-fold change of EC50, HIV-1MDR/JSL (HIV-1MDR/JSL) | n-fold change of EC50, HIV-1MDR/MM (HIV-1MDR/MM)
CC(C)CN(C[C@@H](O)[C@H](Cc1ccccc1)NC(=O)O[C@H]1CCOC1)S(=O)(=O)c1ccc(N)cc1 [APV, Amprenavir] | 0.26 ± 0.07 | 0.28 ± 0.06 | 0.034 ± 0.001 | 0.032 ± 0.001 | 0.35 ± 0.0002 | 0.26 ± 0.03 | > 1 | 0.34 ± 0.015 | 0.62 ± 0.02 | 0.21 ± 0.222 |  |  |  |  |  |  |  |  |  | 
COC(=O)N[C@H](C(=O)N[C@@H](Cc1ccccc1)[C@@H](O)CN(Cc1ccc(-c2ccccn2)cc1)NC(=O)[C@@H](NC(=O)OC)C(C)(C)C)C(C)(C)C [AZV, Atazanavir] | 0.036 ± 0.001 | > 1 |  |  | 0.024 ± 0.002 | 0.014 ± 0.003 | 0.021 ± 0.012 | 0.032 ± 0.003 | 0.43 ± 0.036 | 0.18 ± 0.021 | (9) | > 250 | 0.004 ± 0.0004 | 0.0032 ± 0.0001 | (8) | (4) | (7) | (10) | (215) | (39)
COc1ccc2c(c1)OCCCC=CCCCCN(CC(O)C(Cc1ccccc1)NC(=O)OC1COC3OCCC13)S2(=O)=O (stereo not shown) [Compound 14b] | 0.35 ± 0.019 | 0.03 ± 0.006 |  |  | 0.25 ± 0.05 | 0.19 ± 0.06 | > 1 | 0.33 ± 0.03 | 0.21 ± 0.032 | 0.055 ± 0.025 | (39) | (3) | 0.009 ± 0.0006 | 0.006 ± 0.005 | (42) | (32) | > 167 | (55) |  | (8)
COc1ccc2c(c1)OCCC=CCCCCN(CC(O)C(Cc1ccccc1)NC(=O)OC1COC3OCCC13)S2(=O)=O (stereo not shown) [Compound 14c] | 0.035 ± 0.005 | 0.023 ± 0.005 |  |  | 0.073 ± 0.011 | 0.094 | > 1 | 0.3 ± 0.01 | 0.073 ± 0.07 | 0.033 ± 0.01 |  |  | 0.005 ± 0.001 | 0.004 ± 0.001 |  |  |  |  |  | 
Cc1cccc(C)c1OCC(=O)N[C@@H](Cc1ccccc1)[C@@H](O)C[C@H](Cc1ccccc1)NC(=O)[C@H](C(C)C)N1CCCNC1=O [LPV, lopinavir] | > 1 | > 1 | 0.046 ± 0.025 | 0.035 ± 0.004 | 0.28 ± 0.05 | 0.19 ± 0.06 | > 1 | 0.33 ± 0.04 | > 1 | > 1 | > 22 | > 22 |  |  | (6) | (5) | > 23 | (8) | > 29 | > 29
CCC[C@@]1(CCc2ccccc2)CC(O)=C([C@H](CC)c2cccc(NS(=O)(=O)c3ccc(C(F)(F)F)cn3)c2)C(=O)O1 [TPV, Tipranavir] | 0.31 ± 0.03 | 0.41 ± 0.047 |  |  | 0.042 ± 0.002 | 0.029 ± 0.0004 | 0.037 ± 0.001 | 0.095 ± 0.089 | 0.23 ± 0.049 | 0.36 ± 0.06 | (1) | (1) | 0.32 ± 0.07 | 0.29 ± 0.05 | (0.1) | (0.1) | (0.1) | (0.3) | (2) | (3)

Reference: patent US9617276B2, “Compounds and methods for treating AIDS and HIV infections” (priority 2009, dated 2017)
